According to PMC9851200, “Multiparameter phenotypic screening for endogenous TFEB and TFE3 translocation identifies novel chemical series modulating lysosome function” (Autophagy, 2022):

Legend:
Assay type in all cases: binding
[1] = target: kinases (KINOMEscan panel) (Homo sapiens, UniProt P00533, T790M); details: kinase EGFR(T790M); NEW KINOMEscan
[2] = target: kinases (KINOMEscan panel) (Homo sapiens, UniProt P10721, A829P); details: NEW KINOMEscan
[3] = target: kinases (KINOMEscan panel) (Homo sapiens, UniProt Q8N5S9); details: CAMKK1; NEW KINOMEscan
kinases (KINOMEscan panel) (Homo sapiens, UniProt Q8N5S9), sequence (Q8N5S9 whole entry): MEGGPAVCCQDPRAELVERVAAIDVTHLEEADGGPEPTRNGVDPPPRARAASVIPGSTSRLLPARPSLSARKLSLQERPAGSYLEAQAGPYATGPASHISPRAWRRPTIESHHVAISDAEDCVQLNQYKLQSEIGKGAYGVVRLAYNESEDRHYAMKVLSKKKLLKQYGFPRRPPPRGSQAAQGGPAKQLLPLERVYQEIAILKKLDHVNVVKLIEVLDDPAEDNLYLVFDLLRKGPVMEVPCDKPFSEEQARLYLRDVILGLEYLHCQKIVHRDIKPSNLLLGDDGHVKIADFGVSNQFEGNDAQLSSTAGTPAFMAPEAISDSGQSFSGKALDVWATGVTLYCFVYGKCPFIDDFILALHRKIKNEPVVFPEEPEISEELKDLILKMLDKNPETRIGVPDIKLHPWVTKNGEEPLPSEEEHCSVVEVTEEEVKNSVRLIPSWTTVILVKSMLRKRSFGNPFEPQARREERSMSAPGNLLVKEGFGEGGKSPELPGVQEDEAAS

[4] = target: T1, kinases (KINOMEscan panel) (Homo sapiens, UniProt O76039); details: kinase CDKL5; NEW KINOMEscan
T1 sequence (O76039 1-960): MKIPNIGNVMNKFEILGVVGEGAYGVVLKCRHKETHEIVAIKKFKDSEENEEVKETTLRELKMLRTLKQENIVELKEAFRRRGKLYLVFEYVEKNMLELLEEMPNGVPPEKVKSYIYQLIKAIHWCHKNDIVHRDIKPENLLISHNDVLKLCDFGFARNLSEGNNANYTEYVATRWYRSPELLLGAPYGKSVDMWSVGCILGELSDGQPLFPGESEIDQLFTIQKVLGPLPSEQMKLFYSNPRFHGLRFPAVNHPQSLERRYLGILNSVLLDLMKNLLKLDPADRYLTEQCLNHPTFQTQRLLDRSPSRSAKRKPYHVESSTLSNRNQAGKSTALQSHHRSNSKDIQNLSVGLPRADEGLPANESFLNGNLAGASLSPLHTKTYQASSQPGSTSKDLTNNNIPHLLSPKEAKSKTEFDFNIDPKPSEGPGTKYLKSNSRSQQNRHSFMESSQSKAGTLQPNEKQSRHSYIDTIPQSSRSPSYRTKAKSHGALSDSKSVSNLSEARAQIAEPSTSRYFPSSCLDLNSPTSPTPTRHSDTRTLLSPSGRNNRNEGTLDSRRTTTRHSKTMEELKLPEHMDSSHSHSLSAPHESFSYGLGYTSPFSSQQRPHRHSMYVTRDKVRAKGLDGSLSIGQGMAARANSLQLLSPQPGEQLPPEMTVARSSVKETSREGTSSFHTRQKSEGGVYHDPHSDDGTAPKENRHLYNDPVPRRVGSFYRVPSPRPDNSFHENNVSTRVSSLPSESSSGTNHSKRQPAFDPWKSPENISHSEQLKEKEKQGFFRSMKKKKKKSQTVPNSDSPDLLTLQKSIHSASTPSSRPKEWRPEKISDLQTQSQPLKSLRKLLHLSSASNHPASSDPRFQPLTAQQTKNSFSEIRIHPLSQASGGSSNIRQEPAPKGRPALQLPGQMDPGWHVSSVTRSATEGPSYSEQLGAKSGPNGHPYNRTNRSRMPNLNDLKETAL

[5] = target: kinases (KINOMEscan panel) (Homo sapiens, UniProt O95747); details: NEW KINOMEscan
kinases (KINOMEscan panel) (Homo sapiens, UniProt O95747), sequence (O95747 whole entry): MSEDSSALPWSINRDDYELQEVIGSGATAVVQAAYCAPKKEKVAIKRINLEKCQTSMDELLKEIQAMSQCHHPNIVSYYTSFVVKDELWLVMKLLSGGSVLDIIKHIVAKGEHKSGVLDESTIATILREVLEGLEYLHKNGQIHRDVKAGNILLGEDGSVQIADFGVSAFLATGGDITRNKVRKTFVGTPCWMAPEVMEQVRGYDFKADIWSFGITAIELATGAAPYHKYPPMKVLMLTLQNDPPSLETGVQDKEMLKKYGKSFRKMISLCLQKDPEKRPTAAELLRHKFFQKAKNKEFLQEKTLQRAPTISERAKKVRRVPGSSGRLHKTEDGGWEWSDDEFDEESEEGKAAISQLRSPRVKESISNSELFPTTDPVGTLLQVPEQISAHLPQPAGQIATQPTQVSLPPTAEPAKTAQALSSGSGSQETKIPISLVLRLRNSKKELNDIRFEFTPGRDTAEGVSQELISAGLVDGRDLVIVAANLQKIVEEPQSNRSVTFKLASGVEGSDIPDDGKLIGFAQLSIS

[6] = target: kinases (KINOMEscan panel) (Homo sapiens, UniProt Q9BYP7); details: NEW KINOMEscan
kinases (KINOMEscan panel) (Homo sapiens, UniProt Q9BYP7), sequence (Q9BYP7 whole entry): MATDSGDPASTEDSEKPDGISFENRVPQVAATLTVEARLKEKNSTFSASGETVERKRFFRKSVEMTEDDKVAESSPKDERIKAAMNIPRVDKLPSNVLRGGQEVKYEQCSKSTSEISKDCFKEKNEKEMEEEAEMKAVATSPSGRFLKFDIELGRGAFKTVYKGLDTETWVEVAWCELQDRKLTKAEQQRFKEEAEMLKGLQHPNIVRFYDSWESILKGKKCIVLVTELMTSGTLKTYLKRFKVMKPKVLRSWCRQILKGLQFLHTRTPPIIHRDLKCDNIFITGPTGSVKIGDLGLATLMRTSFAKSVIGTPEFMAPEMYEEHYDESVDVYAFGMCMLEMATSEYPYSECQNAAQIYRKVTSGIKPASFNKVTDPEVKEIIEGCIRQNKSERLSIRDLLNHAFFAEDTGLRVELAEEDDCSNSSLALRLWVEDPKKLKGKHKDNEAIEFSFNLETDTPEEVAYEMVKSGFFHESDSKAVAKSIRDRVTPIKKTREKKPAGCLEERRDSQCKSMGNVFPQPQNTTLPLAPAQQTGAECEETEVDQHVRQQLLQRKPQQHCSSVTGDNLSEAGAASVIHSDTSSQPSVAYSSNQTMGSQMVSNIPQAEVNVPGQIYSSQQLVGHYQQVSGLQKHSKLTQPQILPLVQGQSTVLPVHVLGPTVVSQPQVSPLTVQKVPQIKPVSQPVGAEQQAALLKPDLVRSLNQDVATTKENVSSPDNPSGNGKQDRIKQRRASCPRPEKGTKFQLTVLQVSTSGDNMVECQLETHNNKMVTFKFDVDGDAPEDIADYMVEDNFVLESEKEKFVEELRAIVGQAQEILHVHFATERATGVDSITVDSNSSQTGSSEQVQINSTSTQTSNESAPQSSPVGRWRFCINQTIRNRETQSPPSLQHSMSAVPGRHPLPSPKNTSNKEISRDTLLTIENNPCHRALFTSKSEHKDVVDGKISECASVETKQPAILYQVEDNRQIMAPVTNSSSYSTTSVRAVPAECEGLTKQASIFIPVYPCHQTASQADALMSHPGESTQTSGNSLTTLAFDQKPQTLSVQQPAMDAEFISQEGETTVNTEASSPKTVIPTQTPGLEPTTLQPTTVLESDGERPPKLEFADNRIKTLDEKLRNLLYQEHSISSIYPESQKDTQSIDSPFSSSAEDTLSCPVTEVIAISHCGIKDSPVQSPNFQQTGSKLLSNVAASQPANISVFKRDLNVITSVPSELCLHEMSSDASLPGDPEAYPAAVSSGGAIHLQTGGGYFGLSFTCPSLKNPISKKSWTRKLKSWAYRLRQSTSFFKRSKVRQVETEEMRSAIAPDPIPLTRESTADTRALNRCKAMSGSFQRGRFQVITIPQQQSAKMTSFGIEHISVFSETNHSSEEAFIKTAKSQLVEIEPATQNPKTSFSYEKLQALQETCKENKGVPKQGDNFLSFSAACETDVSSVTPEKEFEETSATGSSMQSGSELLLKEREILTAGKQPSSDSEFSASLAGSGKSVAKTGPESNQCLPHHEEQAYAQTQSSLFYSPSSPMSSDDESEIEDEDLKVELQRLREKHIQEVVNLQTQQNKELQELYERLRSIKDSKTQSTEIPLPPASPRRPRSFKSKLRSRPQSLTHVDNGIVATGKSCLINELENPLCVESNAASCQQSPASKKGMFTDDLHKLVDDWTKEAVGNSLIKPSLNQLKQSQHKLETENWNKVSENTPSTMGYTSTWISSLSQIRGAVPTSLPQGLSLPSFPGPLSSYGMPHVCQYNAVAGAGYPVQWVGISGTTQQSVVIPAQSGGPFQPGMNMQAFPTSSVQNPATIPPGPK

[7] = target: T2, kinases (KINOMEscan panel) (Homo sapiens, UniProt P29322); details: kinase EPHA8; NEW KINOMEscan
T2 sequence (P29322 28-1005): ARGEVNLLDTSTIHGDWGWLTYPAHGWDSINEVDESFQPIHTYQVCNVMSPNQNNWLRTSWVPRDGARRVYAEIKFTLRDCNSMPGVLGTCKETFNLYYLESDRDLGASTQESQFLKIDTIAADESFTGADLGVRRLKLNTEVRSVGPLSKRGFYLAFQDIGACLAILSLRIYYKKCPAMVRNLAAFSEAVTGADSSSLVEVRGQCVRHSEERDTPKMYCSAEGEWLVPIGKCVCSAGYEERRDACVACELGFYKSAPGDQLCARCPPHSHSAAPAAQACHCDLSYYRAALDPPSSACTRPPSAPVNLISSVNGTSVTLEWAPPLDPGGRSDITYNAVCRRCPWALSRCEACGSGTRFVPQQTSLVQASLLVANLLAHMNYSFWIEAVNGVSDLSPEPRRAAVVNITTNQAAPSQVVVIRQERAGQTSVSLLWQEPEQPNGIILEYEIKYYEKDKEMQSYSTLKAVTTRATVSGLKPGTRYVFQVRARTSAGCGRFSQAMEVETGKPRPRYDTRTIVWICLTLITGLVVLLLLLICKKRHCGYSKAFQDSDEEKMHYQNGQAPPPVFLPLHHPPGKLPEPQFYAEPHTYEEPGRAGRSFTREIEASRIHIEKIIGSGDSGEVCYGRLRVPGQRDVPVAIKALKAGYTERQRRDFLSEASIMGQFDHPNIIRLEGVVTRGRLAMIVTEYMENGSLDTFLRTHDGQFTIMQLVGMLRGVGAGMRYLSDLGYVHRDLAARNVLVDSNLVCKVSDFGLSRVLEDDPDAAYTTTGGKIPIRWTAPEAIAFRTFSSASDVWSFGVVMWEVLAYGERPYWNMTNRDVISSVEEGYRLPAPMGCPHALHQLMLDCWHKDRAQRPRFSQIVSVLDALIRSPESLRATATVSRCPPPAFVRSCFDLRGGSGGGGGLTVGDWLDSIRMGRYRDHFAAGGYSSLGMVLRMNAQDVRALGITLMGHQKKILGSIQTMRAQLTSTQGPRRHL

[8] = target: kinases (KINOMEscan panel) (Homo sapiens, UniProt Q13554); details: kinase CAMK2B; NEW KINOMEscan
kinases (KINOMEscan panel) (Homo sapiens, UniProt Q13554), sequence (Q13554 whole entry): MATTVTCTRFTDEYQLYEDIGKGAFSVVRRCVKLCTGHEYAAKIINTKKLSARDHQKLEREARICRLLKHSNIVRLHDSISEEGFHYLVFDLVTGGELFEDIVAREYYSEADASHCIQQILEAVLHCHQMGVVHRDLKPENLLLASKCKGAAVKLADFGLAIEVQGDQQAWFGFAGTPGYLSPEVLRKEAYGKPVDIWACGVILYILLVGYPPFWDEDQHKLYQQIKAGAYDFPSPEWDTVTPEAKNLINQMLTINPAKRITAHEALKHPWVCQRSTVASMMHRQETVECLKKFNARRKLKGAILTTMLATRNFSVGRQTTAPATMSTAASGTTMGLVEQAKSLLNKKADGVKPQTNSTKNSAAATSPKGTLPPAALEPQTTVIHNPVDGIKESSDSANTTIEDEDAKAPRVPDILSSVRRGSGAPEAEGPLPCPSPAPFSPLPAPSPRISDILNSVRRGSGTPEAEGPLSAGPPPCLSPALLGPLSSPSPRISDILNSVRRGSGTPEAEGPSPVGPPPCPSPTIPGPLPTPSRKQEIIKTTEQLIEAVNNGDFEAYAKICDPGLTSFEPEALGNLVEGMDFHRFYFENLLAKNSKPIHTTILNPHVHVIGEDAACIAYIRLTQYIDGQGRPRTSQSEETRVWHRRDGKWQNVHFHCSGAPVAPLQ

[9] = target: T3, kinases (KINOMEscan panel) (Homo sapiens, UniProt Q96D53); details: kinase COQ8B; NEW KINOMEscan
T3 sequence (Q96D53 1-544): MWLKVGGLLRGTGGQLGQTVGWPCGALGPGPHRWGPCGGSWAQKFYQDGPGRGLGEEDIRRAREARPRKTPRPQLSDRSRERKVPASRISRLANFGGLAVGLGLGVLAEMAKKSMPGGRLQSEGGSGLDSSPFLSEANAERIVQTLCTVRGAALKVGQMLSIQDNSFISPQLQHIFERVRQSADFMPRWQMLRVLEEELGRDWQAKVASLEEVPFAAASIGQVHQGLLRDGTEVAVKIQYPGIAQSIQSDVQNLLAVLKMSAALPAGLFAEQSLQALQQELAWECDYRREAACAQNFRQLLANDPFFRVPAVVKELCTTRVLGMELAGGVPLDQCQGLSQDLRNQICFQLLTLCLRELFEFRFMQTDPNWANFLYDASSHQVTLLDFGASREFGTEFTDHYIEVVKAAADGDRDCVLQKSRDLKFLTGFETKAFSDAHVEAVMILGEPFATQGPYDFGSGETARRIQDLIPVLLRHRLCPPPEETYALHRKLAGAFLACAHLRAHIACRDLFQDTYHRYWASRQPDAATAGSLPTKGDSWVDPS

kinases (KINOMEscan panel) (Homo sapiens, UniProt P10721, A829P), sequence (P10721 26-976 A829P): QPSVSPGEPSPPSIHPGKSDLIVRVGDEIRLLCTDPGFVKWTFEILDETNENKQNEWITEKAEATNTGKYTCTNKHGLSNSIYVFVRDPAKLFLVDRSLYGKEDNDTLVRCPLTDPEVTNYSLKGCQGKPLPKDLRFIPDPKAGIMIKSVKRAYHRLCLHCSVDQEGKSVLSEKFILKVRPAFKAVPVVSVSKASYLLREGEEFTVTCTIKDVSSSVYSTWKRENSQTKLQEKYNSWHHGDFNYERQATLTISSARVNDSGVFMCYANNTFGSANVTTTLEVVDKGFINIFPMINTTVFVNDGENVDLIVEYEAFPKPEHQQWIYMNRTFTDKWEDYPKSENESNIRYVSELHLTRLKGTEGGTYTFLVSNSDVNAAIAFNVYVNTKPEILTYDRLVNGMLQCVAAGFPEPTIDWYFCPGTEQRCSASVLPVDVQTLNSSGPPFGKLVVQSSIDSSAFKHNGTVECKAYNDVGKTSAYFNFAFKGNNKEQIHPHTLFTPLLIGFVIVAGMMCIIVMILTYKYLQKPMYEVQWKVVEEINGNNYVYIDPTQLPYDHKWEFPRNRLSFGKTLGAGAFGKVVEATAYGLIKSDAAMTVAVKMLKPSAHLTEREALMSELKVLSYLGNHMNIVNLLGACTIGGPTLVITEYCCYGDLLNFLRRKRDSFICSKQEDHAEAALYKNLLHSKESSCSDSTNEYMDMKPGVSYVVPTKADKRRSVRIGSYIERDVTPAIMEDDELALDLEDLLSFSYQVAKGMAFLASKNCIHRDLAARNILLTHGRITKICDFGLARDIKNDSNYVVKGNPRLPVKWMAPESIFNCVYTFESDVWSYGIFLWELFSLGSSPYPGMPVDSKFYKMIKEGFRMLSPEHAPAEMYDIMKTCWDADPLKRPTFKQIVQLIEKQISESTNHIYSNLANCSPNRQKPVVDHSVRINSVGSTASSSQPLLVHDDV

Row | Structure (SMILES) | KINOMEscan EGFR(T790M) [1] | KINOMEscan KIT(A829P) [2] | KINOMEscan CAMKK1 [3] | KINOMEscan CDKL5 [4] | KINOMEscan OSXR1 [5] | KINOMEscan WNK3 [6] | KINOMEscan EPHA8 [7] | KINOMEscan CAMK2B [8] | KINOMEscan COQ8B [9]
1 | Cc1cccc(-c2nc(Nc3ccc4nn(C)cc4c3)c3ccccc3n2)n1 [NK167] | 0 | 0 | 0 | 0 | 11 | 0 | 0 | 0 | 0
2 | Cc1cccc(-c2nc(N(C)c3ccc4ncsc4c3)c3ccccc3n2)n1 [NK-161] | 0 | 19 | 9 | 3 | 25 | 28 | 0 | 0 | 0
